The source of these data is US10004701B2, “Methods and compositions for treating infection” (UNIVERSITY OF ROCHESTER, priority 2012, dated 2018).

Common to all, as to assay: AK assay 384-well format, Prestwick library screening
In one experiment the test system is P. aeruginosa. The class given is cell-based, Pseudomonas aeruginosa. The note with it: 50 μM final drug concentration; for fold induction at 50 µM: Pseudomonas aeruginosa, 3 h.
Another experiment has as its system K. pneumoniae. The format is cell-based, Klebsiella pneumoniae. The note with it: 50 μM final drug concentration; for fold induction at 50 µM: Klebsiella pneumoniae, 3 h.
The test system of experiment [1] is A. baumannii strain 98-37-09. The format is cell-based, Acinetobacter baumannii. The note with it: 50 μM final drug concentration; for fold induction at 50 µM: Acinetobacter baumannii, 983709, 3 h.
Another experiment has as its system E. coli. The class given is cell-based, Escherichia coli. The note with it: 50 μM final drug concentration; for fold induction at 50 µM: Escherichia coli, 3 h.
For a further experiment, the system named is E. faecium. The class given is cell-based, Enterococcus faecium. The note with it: 50 μM final drug concentration; for fold induction at 50 µM: Enterococcus faecium, 3 h.
Experiment [2] concerns S. aureus strain USA300-0114. The class given is cell-based, Staphylococcus aureus. The note with it: 50 μM final drug concentration; for fold induction at 50 µM: Staphylococcus aureus, USA300, 3 h.
The next experiment relates to E. cloacae. The class given is cell-based, Enterobacter cloacae. The note with it: 50 μM final drug concentration; for fold induction at 50 µM: Enterobacter cloacae, 3 h.
Setting [3] is: 384-well format, cutoff for positive-scoring molecules 3-fold increase.
Where [4] appears, read: planktonic, […], read-out: AK-based Prestwick Library Screening Results, P. aeruginosa (fold increase in extracellular AK activity).
[5] abbreviates: planktonic, […], read-out: AK-based Prestwick Library Screening Results, K. pneumoniae (fold increase in extracellular AK activity).
The mark [6] stands for this setting: planktonic, […], read-out: AK-based Prestwick Library Screening Results, A. baumannii (fold increase in extracellular AK activity).
The mark [7] stands for this setting: planktonic, […], read-out: AK-based Prestwick Library Screening Results, E. coli (fold increase in extracellular AK activity).
[8] abbreviates: planktonic, […], read-out: AK-based Prestwick Library Screening Results, E. faecium (fold increase in extracellular AK activity).
Where [9] appears, read: planktonic, […], read-out: AK-based Prestwick Library Screening Results, S. aureus (fold increase in extracellular AK activity).
The mark [10] stands for this setting: planktonic, […], read-out: AK-based Prestwick Library Screening Results, E. cloacae (fold increase in extracellular AK activity).
Setting [11] is: planktonic P. aeruginosa, cutoff for positive-scoring molecules 3-fold increase, read-out: AK-based Prestwick Library Screening Results, P. aeruginosa (increase in extracellular AK activity).
[12] abbreviates: planktonic K. pneumoniae, cutoff for positive-scoring molecules 3-fold increase, read-out: AK-based Prestwick Library Screening Results, K. pneumoniae (increase in extracellular AK activity).
Where [13] appears, read: planktonic A. baumannii, cutoff for positive-scoring molecules 3-fold increase, read-out: AK-based Prestwick Library Screening Results, A. baumannii (increase in extracellular AK activity).
[14] abbreviates: planktonic E. faecium, cutoff for positive-scoring molecules 3-fold increase, read-out: AK-based Prestwick Library Screening Results, E. faecium (increase in extracellular AK activity).
[15] abbreviates: planktonic S. aureus, cutoff for positive-scoring molecules 3-fold increase, read-out: AK-based Prestwick Library Screening Results, S. aureus (increase in extracellular AK activity).
[16] abbreviates: planktonic E. cloacae, cutoff for positive-scoring molecules 3-fold increase, read-out: AK-based Prestwick Library Screening Results, E. cloacae (increase in extracellular AK activity).

Like-named read-outs stand apart in the source and are kept apart here.

As to `CC(C)(C)NCC(O)COc1cccc2c1CC(O)C(O)C2` (stereo not drawn) [Nadolol], the fold induction at 50 µM with P. aeruginosa (planktonic, cutoff for positive-scoring molecules 3-fold increase, read-out: AK-based Prestwick Library Screening Results, P. aeruginosa (fold increase in extracellular AK activity)) was 0.6; with K. pneumoniae (planktonic, cutoff for positive-scoring molecules 3-fold increase, read-out: AK-based Prestwick Library Screening Results, K. pneumoniae (fold increase in extracellular AK activity)), 0.6; in experiment [1] (planktonic, cutoff for positive-scoring molecules 3-fold increase, read-out: AK-based Prestwick Library Screening Results, A. baumannii (fold increase in extracellular AK activity)) it was 0.7; in the experiment with E. coli (planktonic, cutoff for positive-scoring molecules 3-fold increase, read-out: AK-based Prestwick Library Screening Results, E. coli (fold increase in extracellular AK activity)) it was 0.8; with E. faecium (planktonic, cutoff for positive-scoring molecules 3-fold increase, read-out: AK-based Prestwick Library Screening Results, E. faecium (fold increase in extracellular AK activity)), 0.9; in experiment [2] (planktonic, cutoff for positive-scoring molecules 3-fold increase, read-out: AK-based Prestwick Library Screening Results, S. aureus (fold increase in extracellular AK activity)) it was 0.7. Moreover, the fold induction at 50 µM in the experiment with E. cloacae (planktonic, cutoff for positive-scoring molecules 3-fold increase, read-out: AK-based Prestwick Library Screening Results, E. cloacae (fold increase in extracellular AK activity)) was determined as 0.8.

Turning to `COc1ccc(C(=O)OC2C[C@H]3CC[C@@H](C2)N3C)cc1OC.Cl` (stereo partly drawn) [Convolamine hydrochloride], in the experiment on P. aeruginosa (planktonic P. aeruginosa, cutoff for positive-scoring molecules 3-fold increase), the “AK-based Prestwick Library Screening Results, P. aeruginosa (increase in extracellular AK activity)” value came out at 0.8. Further, the “AK-based Prestwick Library Screening Results, K. pneumoniae (increase in extracellular AK activity)” value with K. pneumoniae (planktonic K. pneumoniae, cutoff for positive-scoring molecules 3-fold increase) is on record as 0.7. For the same compound, the “AK-based Prestwick Library Screening Results, A. baumannii (increase in extracellular AK activity)” value in experiment [1] (planktonic A. baumannii, cutoff for positive-scoring molecules 3-fold increase) amounted to 1.0. Besides, in the experiment on E. coli (planktonic E. coli, cutoff for positive-scoring molecules 3-fold increase), the “AK-based Prestwick Library Screening Results, E. coli (increase in extracellular AK activity)” value is reported as 1.1. Further, the “AK-based Prestwick Library Screening Results, E. faecium (increase in extracellular AK activity)” value in the experiment on E. faecium (planktonic E. faecium, cutoff for positive-scoring molecules 3-fold increase) stood at 0.9. Also, in experiment [2] (planktonic S. aureus, cutoff for positive-scoring molecules 3-fold increase), the “AK-based Prestwick Library Screening Results, S. aureus (increase in extracellular AK activity)” value was 0.6. Further, the “AK-based Prestwick Library Screening Results, E. cloacae (increase in extracellular AK activity)” value in the experiment on E. cloacae (planktonic E. cloacae, cutoff for positive-scoring molecules 3-fold increase) is given as 1.3.

On to `Cl.N=C(N=C(N)N)N1CCOCC1` [Moroxidine hydrochloride], for which the “AK-based Prestwick Library Screening Results, P. aeruginosa (increase in extracellular AK activity)” value with P. aeruginosa (setting [3]) is given as 0.3. In addition, the “AK-based Prestwick Library Screening Results, K. pneumoniae (increase in extracellular AK activity)” value with K. pneumoniae (setting [3]) is 0.4. In experiment [1] (setting [3]), the “AK-based Prestwick Library Screening Results, A. baumannii (increase in extracellular AK activity)” value stood at 0.4. For the same compound, the “AK-based Prestwick Library Screening Results, E. coli (increase in extracellular AK activity)” value with E. coli (setting [3]) was found to be 0.5. In addition, the “AK-based Prestwick Library Screening Results, E. faecium (increase in extracellular AK activity)” value in the experiment with E. faecium (setting [3]) is recorded as 0.8. The “AK-based Prestwick Library Screening Results, S. aureus (increase in extracellular AK activity)” value in experiment [2] (setting [3]) was determined as 0.4. Also, in the experiment on E. cloacae (setting [3]), the “AK-based Prestwick Library Screening Results, E. cloacae (increase in extracellular AK activity)” value amounted to 0.3.

Take `COc1cc2c(cc1O)[C@@H]1Cc3ccc(OC)c(O)c3CN1CC2` [Scoulerine]: the fold induction at 50 µM in the experiment with P. aeruginosa (setting [4]) came out at 1.1; with K. pneumoniae (setting [5]), 1; in experiment [1] (setting [6]), 1.3; in the experiment with E. coli (setting [7]), 1.2; with E. faecium (setting [8]), 1; in experiment [2] (setting [9]) it was 1. Also, the fold induction at 50 µM with E. cloacae (setting [10]) amounted to 1.6.

Take `C=C[C@]12CN(C)[C@@H]3[C@H]4CO[C@H](C[C@H]41)[C@]1(C(=O)Nc4ccccc41)[C@@H]32` [Gelsemine]: the fold induction at 50 µM amounted to 0.9 in the experiment with P. aeruginosa (setting [4]); 0.7 with K. pneumoniae (setting [5]); 0.7 in experiment [1] (setting [6]); 0.9 with E. coli (setting [7]); 0.9 with E. faecium (setting [8]); 0.7 in experiment [2] (setting [9]). Also, the fold induction at 50 µM in the experiment with E. cloacae (setting [10]) was found to be 0.9.

Take `N[C@@H](C(=O)N[C@@H]1C(=O)N2C(C(=O)O)=C(Cl)CS[C@H]12)c1ccccc1` [Cefaclor]: the fold induction at 50 µM was 0.5 in the experiment with P. aeruginosa (setting [11]); 2.5 in the experiment with K. pneumoniae (setting [12]); 1.5 in experiment [1] (setting [13]); 10.7 in the experiment with E. coli (planktonic E. coli, cutoff for positive-scoring molecules 3-fold increase, read-out: AK-based Prestwick Library Screening Results, E. coli (increase in extracellular AK activity)); 0.9 in the experiment with E. faecium (setting [14]); 0.5 in experiment [2] (setting [15]). The fold induction at 50 µM in the experiment with E. cloacae (setting [16]) was found to be 0.7.

Consider `O=c1[nH]c2ccccc2n1C1CCN(CCCC(c2ccc(F)cc2)c2ccc(F)cc2)CC1` [Pimozide], for which the fold induction at 50 µM in the experiment on P. aeruginosa (planktonic P. aeruginosa, 384-well, cutoff for positive-scoring molecules 3-fold increase, read-out: AK-based Prestwick Library Screening Results: P. aeruginosa (increase in extracellular AK activity)) was 1.3; in the experiment with K. pneumoniae (planktonic K. pneumoniae, 384-well, cutoff for positive-scoring molecules 3-fold increase, read-out: AK-based Prestwick Library Screening Results: K. pneumoniae (increase in extracellular AK activity)) it was 1.3; in experiment [1] (planktonic A. baumannii, 384-well, cutoff for positive-scoring molecules 3-fold increase, read-out: AK-based Prestwick Library Screening Results: A. baumannii (increase in extracellular AK activity)) it was 8.7; in the experiment on E. coli (planktonic E. coli, 384-well, cutoff for positive-scoring molecules 3-fold increase, read-out: AK-based Prestwick Library Screening Results: E. coli (increase in extracellular AK activity)), 1.7; with E. faecium (planktonic E. faecium, 384-well, cutoff for positive-scoring molecules 3-fold increase, read-out: AK-based Prestwick Library Screening Results: E. faecium (increase in extracellular AK activity)) it was 1.3; in experiment [2] (planktonic S. aureus, 384-well, cutoff for positive-scoring molecules 3-fold increase, read-out: AK-based Prestwick Library Screening Results: S. aureus (increase in extracellular AK activity)) it was 2.3. In the experiment on E. cloacae (planktonic E. cloacae, 384-well, cutoff for positive-scoring molecules 3-fold increase, read-out: AK-based Prestwick Library Screening Results: E. cloacae (increase in extracellular AK activity)), the fold induction at 50 µM came out at 1.2.

For `c1cncc(C2=NCCC2)c1` [Myosmine], the fold induction at 50 µM with P. aeruginosa (setting [4]) is 0.4; in the experiment with K. pneumoniae (setting [5]), 0.5; in experiment [1] (setting [6]), 0.5; in the experiment with E. coli (setting [7]) it was 0.5; in the experiment with E. faecium (setting [8]), 0.9; in experiment [2] (setting [9]), 0.4. Further, the fold induction at 50 µM in the experiment with E. cloacae (setting [10]) turned out to be 0.4.

Take `C[C@H]1C[C@H]2[C@@H]3CCC4=CC(=O)C=C[C@]4(C)[C@@]3(F)[C@@H](O)C[C@]2(C)[C@@]1(O)C(=O)CO` [Betamethasone]: the fold induction at 50 µM in the experiment on P. aeruginosa (setting [11]) was found to be 1.1; with K. pneumoniae (setting [12]), 0.9; in experiment [1] (setting [13]), 0.9; in the experiment with E. coli (planktonic E. coli, […], read-out: AK-based Prestwick Library Screening Results, E. coli (increase in extracellular AK activity)), 1.1; in the experiment with E. faecium (setting [14]) it was 1.1; in experiment [2] (setting [15]), 1.1. For the same compound, the fold induction at 50 µM in the experiment with E. cloacae (setting [16]) was determined as 1.3.
